Measurements taken from PubChem BioAssay AID2415 (Johns Hopkins Ion Channel Center, 2010).

What was measured:
Test in all cases: KCNQ1-5 subtype selectivity of KCNQ2 potentiator, late-stage follow-up, selectivity assay for KCNQ2 potentiator project, cell-based, manual patch clamp, mode of action (AID 2415)
[1] = molecular target: Potassium voltage-gated channel subfamily KQT member 5 (Homo sapiens) (UniProt Q9NR82); conditions: KCNQ channels in transfected CHO cells, manual whole-cell patch clamp current; measured here: KCNQ5 current ratio; at 10 µM; stronger effect = higher value
Potassium voltage-gated channel subfamily KQT member 5 (Homo sapiens), sequence (Q9NR82 whole entry, looked up): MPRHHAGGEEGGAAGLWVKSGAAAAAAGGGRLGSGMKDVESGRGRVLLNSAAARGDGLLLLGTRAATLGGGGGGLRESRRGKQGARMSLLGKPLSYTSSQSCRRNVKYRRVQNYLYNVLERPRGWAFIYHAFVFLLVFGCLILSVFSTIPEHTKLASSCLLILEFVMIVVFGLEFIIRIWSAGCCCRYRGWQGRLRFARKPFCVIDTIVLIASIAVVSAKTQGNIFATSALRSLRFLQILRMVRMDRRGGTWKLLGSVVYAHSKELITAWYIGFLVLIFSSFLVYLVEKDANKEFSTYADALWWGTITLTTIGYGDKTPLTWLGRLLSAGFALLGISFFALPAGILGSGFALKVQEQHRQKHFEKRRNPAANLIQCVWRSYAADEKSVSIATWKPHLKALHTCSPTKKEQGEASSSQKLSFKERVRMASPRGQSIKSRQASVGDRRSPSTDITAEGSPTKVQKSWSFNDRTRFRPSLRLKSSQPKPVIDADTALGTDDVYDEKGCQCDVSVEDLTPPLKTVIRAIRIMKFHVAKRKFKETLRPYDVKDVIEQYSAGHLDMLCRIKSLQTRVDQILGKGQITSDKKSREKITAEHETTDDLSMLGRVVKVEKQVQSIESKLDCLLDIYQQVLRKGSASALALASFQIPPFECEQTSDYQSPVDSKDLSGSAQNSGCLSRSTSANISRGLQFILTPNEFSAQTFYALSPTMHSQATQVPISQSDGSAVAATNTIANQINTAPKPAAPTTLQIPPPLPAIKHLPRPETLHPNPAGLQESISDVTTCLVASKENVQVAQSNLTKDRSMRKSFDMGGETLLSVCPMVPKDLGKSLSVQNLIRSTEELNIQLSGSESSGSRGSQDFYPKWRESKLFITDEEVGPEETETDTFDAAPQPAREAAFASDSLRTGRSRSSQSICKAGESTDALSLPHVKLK

[2] = molecular target: Potassium voltage-gated channel subfamily KQT member 2 (Rattus norvegicus) (UniProt O88943); conditions: KCNQ channels in transfected CHO cells, manual whole-cell patch clamp current; measured here: KCNQ2 current ratio; at 10 µM; stronger effect = higher value
Potassium voltage-gated channel subfamily KQT member 2 (Rattus norvegicus), sequence (O88943 whole entry, looked up): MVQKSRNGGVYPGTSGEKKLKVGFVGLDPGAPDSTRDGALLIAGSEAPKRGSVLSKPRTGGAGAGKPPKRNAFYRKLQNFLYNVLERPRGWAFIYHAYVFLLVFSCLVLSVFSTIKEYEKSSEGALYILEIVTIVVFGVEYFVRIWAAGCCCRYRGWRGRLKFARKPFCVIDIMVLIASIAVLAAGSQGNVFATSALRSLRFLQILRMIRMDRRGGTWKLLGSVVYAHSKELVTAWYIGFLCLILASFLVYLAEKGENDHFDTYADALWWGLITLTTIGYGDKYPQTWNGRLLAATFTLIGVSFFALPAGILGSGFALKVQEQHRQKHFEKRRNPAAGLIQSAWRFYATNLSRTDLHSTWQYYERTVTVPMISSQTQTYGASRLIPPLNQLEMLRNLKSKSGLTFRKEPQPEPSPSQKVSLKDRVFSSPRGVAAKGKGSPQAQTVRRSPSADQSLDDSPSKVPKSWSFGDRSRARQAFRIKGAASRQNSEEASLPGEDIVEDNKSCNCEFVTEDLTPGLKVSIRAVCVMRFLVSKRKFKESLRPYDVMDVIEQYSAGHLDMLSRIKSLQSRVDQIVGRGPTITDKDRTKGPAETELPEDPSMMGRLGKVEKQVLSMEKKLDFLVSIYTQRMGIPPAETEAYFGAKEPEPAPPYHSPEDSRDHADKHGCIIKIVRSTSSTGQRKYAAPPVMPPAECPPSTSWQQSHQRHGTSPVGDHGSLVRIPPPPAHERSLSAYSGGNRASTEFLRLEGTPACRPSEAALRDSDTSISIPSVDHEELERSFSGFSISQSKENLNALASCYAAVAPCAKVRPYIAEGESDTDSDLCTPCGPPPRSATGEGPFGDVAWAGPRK

[3] = molecular target: Potassium voltage-gated channel subfamily KQT member 3 (Rattus norvegicus) (UniProt O88944); conditions: KCNQ channels in transfected CHO cells, manual whole-cell patch clamp current; measured here: KCNQ3 current ratio; at 10 µM; stronger effect = higher value
Potassium voltage-gated channel subfamily KQT member 3 (Rattus norvegicus), sequence (O88944 whole entry, looked up): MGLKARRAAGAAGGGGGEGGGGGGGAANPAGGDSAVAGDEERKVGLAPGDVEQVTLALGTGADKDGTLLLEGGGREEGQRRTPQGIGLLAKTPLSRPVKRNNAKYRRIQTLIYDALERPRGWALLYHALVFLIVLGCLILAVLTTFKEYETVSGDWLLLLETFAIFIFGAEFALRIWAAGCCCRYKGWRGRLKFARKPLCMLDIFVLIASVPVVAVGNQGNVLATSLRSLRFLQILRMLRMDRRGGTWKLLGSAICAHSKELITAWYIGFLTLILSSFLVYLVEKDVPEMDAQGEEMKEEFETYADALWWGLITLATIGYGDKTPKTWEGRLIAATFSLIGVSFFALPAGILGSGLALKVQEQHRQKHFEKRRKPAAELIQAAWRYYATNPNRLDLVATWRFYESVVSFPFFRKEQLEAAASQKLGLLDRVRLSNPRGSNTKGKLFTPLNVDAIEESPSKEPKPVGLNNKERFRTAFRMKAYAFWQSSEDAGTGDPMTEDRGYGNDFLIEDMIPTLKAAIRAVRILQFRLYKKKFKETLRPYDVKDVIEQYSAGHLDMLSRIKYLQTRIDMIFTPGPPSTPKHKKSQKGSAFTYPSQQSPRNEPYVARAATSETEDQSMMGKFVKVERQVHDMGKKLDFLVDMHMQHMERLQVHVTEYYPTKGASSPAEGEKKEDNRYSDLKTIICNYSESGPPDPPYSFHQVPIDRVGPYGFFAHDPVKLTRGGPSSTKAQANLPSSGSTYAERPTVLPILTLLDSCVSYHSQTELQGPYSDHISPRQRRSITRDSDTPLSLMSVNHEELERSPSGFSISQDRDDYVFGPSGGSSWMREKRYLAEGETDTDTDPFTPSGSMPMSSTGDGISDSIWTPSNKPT

[4] = molecular target: Potassium voltage-gated channel subfamily KQT member 1 (Homo sapiens) (UniProt P51787); conditions: KCNQ channels in transfected CHO cells, manual whole-cell patch clamp current, at 10 µM
Potassium voltage-gated channel subfamily KQT member 1 (Homo sapiens), sequence (P51787 whole entry, looked up): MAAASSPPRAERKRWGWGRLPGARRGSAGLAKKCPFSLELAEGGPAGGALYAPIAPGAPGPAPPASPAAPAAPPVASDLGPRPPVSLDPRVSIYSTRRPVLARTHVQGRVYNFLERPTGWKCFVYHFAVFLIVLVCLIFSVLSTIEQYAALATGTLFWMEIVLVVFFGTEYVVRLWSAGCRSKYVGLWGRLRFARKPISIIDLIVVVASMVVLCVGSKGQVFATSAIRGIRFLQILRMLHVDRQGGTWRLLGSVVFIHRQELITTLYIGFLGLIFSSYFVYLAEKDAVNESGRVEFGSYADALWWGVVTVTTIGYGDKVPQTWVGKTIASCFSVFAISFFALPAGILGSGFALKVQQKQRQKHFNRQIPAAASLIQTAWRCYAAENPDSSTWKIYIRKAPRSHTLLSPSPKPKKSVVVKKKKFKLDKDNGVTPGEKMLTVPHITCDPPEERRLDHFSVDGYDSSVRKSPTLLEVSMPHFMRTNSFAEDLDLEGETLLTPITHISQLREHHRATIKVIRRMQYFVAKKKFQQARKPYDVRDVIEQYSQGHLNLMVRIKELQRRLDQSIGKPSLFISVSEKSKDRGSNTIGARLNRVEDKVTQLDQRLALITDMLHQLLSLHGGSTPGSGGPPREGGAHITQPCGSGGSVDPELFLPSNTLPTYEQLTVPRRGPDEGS

[5] = molecular target: Potassium voltage-gated channel subfamily KQT member 4 (Homo sapiens) (UniProt P56696); conditions: KCNQ channels in transfected CHO cells, manual whole-cell patch clamp current; measured here: KCNQ4 current ratio; at 10 µM; stronger effect = higher value
Potassium voltage-gated channel subfamily KQT member 4 (Homo sapiens), sequence (P56696 whole entry, looked up): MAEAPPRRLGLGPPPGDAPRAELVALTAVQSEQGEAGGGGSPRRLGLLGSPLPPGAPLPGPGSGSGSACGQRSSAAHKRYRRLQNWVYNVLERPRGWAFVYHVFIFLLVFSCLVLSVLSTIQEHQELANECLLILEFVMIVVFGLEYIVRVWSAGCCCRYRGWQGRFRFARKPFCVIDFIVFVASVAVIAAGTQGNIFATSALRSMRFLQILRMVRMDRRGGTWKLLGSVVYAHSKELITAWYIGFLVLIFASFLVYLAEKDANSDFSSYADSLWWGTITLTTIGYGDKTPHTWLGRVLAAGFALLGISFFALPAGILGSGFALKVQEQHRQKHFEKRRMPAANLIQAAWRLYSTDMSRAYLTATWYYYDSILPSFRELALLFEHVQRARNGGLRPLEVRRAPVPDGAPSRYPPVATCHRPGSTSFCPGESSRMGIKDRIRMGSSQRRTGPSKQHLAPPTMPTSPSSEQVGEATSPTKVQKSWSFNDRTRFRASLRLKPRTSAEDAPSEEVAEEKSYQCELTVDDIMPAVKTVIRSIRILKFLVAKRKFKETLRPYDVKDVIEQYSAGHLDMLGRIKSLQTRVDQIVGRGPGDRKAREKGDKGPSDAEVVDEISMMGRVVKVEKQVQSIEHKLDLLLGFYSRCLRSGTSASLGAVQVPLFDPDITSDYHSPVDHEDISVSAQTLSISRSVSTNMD

- current ratio I/I0 [1]: 3.5
- current ratio I/I0 [2]: 1.9
- current ratio I/I0 [3]: 1
- current ratio I/I0 ([4]; stronger effect = higher value): 0.9
- deactivation tau ([4]; measured here: KCNQ2 deactivation time constant, stronger effect = higher value): 51.8 ms
- V1/2 ([4]; measured here: KCNQ2 half activation voltage, stronger effect = lower value): -16.6 mV
- current ratio I/I0 [5]: 2.4
SMILES: O=C(Nc1ccc(Cl)nc1)c1ccc(F)cc1
